16 molecules from US20230091225A1, “Bifunctional chimeric heterocyclic compounds for targeted degradation of androgen receptors and use thereof” (HINOVA PHARMACEUTICALS INC., priority 2019, published 2023) can be followed below.

SMILES strings stand for the structures.

The assay addresses T1, androgen receptor (AR) (Homo sapiens, UniProt P10275).
T1 sequence (P10275 1-920): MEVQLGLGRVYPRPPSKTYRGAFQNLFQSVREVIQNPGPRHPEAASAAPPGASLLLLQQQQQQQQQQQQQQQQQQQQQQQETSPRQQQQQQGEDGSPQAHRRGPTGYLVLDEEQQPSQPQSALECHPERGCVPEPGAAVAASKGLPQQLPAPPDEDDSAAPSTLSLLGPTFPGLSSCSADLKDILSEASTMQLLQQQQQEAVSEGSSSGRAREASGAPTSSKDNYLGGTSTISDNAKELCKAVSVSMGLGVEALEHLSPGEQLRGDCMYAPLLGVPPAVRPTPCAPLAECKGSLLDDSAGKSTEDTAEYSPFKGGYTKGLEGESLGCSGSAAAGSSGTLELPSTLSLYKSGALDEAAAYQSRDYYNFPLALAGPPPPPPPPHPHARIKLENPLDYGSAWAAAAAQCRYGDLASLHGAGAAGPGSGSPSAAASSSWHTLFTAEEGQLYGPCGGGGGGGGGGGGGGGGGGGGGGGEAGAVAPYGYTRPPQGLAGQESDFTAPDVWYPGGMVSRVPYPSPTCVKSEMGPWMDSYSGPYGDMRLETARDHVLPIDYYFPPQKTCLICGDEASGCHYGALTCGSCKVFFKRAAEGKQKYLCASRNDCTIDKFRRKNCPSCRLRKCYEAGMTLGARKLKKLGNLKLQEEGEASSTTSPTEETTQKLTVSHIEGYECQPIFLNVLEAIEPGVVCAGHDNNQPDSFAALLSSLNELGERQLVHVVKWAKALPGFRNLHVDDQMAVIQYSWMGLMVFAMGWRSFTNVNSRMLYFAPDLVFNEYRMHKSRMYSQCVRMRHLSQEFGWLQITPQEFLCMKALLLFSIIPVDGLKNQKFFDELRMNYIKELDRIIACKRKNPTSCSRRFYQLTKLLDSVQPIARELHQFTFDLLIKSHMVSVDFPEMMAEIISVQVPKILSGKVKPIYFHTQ
Put plainly: Degradation of androgen receptor (AR) protein in VCaP cells by Western blot. The assay is classed as cell-based. As to the method:
Determination of the Degradation Activity of the Compound on Androgen Receptor (AR) Protein by Western Blot
1) VCaP cells were subcultured in cell culture media, and then the cells in good growth condition were seeded in a 12-well plate at 1 ml/well (5×10^5 cells/well), and cultured overnight in a 37° C., 5% CO2 cell incubator. 2) The test compound was prepared into a 10 mM stock solution with dimethyl sulfoxide (DMSO). Prior to use, the solution was diluted 3 times with DMSO. […] of the diluted compound solution was added to the cell culture well (ensuring that the DMSO concentration in the culture system was 0.1%), and two wells were set for each concentration. The plate was gently shaken to mix. In addition, the experiment included negative control wells (containing equal amount of DMSO) and positive control wells. 3) After culturing 16 h. the cells were lysed with RIPA cell lysate, and the protein was extracted. The protein concentration was measured with BCA kit. 5-fold concentrated protein loading buffer was added, and after heated at 100° C. for 5 min. the sample was stored at −20° C. 4) for each well, 30 μg of protein was loaded on polyacrylamide gel for electrophoresis. 5) The protein was transferred from polyacrylamide gel to PVDF membrane, and then 5% skim milk was added to close for 1 h at room temperature. The first antibody (Androgen Receptor (D6F11) XP Rabbit mAb and Anti-β-Actin Rabbit mAb) was added and incubated overnight at 4° C. The membrane was washed with TBST solution three times. 10 min for each time. The secondary antibody (horseradish peroxidase labeled goat […]) was added and incubated at room temperature for 2 h, and then the membrane was washed with TBST solution three times. 10 min for each time.
Finally, ECL chemiluminescence solution was added, and then photos were taken with automatic chemiluminescence instrument to collect pictures for analysis.
Background: A western blot detects proteins with antibodies after separation by electrophoresis.

Where [1] appears, read: percentage of degraded AR at 100 nM, VCaP cells, 16 h.

Consider `N#Cc1ccc(O[C@H]2CC[C@H](NC(=O)c3cnc(N4CCC(N5CCC6(CCN(c7cc8c(cc7F)C(=O)N(C7CCC(=O)NC7=O)C8=O)C6)C5)CC4)cn3)CC2)cc1Cl` (stereo partly shown) [Compound 165, N-((1r,4r)-4-(3-chloro-4-cyanophenoxy)cyclohexyl)-5-(4-(7-(2-(2,6-dioxopiperidin-3-yl)-6-fluoro-1,3-dioxoisoindolin-5-yl)-2,7-diazaspiro[4.4]nonan-2-yl)piperidin-1-yl)pyrazine-2-carboxamide], for which, under setting [1], the inhibition (in general, the change of the read-out against control, counted positive when it falls) at 0.1 µM was over 80%.
`CC1(C)C(NC(=O)c2ccc(N3C[C@@H]4C(CN5CCN(c6cc7c(cc6F)C(=O)N(C6CCC(=O)NC6=O)C7=O)CC5)[C@@H]4C3)nn2)C(C)(C)C1Oc1ccc(C#N)c(Cl)c1` (stereo partly drawn) [Compound 181, N-((1r,3R)-3-(3-chloro-4-cyanophenoxy)-2,2,4,4-tetramethylcyclobutyl)-6-((1R,5S,6S)-6-((4-(2-(2,6-dioxopiperidin-3-yl)-6-fluoro-1,3-dioxoisoindolin-5-yl)piperazin-1-yl)methyl)-3-azabicyclo[3.1.0]hexan-3-yl)pyridazine-3-formamide]: the “% degradation” value under setting [1] is given as “B (79%-50%)”.
Turning to `N#Cc1ccc(O[C@H]2CC[C@H](NC(=O)c3cnc(N4CCN(C[C@@H]5[C@H]6CN(c7cc8c(cc7F)C(=O)N(C7CCC(=O)NC7=O)C8=O)C[C@@H]56)CC4)cn3)CC2)cc1Cl` (stereo partly shown) [Compound 99], the “degradation activity on AR at different concentrations” value (FIG. 1) is listed as “concentration-dependent manner”.
Under setting [1], `N#Cc1ccc(O[C@H]2CC[C@H](NC(=O)c3cnc(N4CCC(CN5CC6CN(c7ccc8c(c7)C(=O)N(C7CCC(=O)NC7=O)C8=O)CC6C5)CC4)nc3)CC2)cc1Cl` (stereo partly shown) [Compound 256, N-((1r,4r)-4-(3-chloro-4-cyanophenoxy)cyclohexyl)-2-(4-((5-(2-(2,6-dioxopiperidin-3-yl)-1,3-dioxoisoindolin-5-yl)Hexahydropyrrolo[3,4-c]pyrrol-2(11H)-yl)methyl)piperidin-1-yl)pyrimidine-5-carboxamide] showed an inhibition at 0.1 µM of 25 to 49%.
Still for that read-out and setting: for `N#Cc1ccc(O[C@H]2CC[C@H](NC(=O)c3ccc(N4CCC(N5CC6(CCN(c7cc8c(cc7F)C(=O)N(C7CCC(=O)NC7=O)C8=O)CC6)C5)CC4)nn3)CC2)cc1Cl` (stereo partly drawn) [Compound 61, N-((1R,4R)-4-(3-chloro-4-cyanophenoxy)cyclohexyl)-6-(4-(7-(2-(2,6-dioxopiperidin-3-yl)-6-fluoro-1,3-dioxoisoindolin-5-yl)-2,7-diazaspiro[3.5]nonyl-2-yl)piperidin-1-yl)pyridazine-3-carboxamide] the value was over 80%; for `N#Cc1ccc(O[C@H]2CC[C@H](NC(=O)c3ccc(N4CCC5(CC4)CN(C4CCN(c6cc7c(cc6F)C(=O)N(C6CCC(=O)NC6=O)C7=O)CC4)C5)nn3)CC2)cc1Cl` (stereo partly shown) [Compound 71], over 80%.
The molecule `N#Cc1ccc(O[C@H]2CC[C@H](NC(=O)c3cnc(N4CCN([C@@H]5C[C@@H]6CN(c7cc8c(cc7F)C(=O)N(C7CCC(=O)NC7=O)C8=O)C[C@@H]6C5)CC4)nc3)CC2)cc1Cl` (stereo partly drawn) [Compound 299, N-((1r,4r)-4-(3-chloro-4-cyanophenoxy)cyclohexyl)-2-(4-((3aR,5R,6aS)-2-(2-(2,6-dioxopiperidin-3-yl)-6-fluoro-1,3-dioxoisoindolin-5-yl)octahydrocyclopenta[c]pyrrol-5-yl)piperazin-1-yl)pyrimidine-5-formamide] showed an inhibition at 0.1 µM under setting [1] of under 25%.
Same read-out and setting: then `CC1(C)[C@H](Oc2ccc(C#N)c(Cl)c2)C(C)(C)[C@H]1N1Cc2nc(C#CC3CCN(C4CCN(c5ccc6c(c5)C(=O)N(C5CCC(=O)NC5=O)C6=O)CC4)CC3)ccc2C1=O` (stereo partly shown) [Compound 315, 2-chloro-4-((1r,3r)-3-(2-((1′-(2-(2,6-dioxopiperidin-3-yl)-1,3-dioxoisoindolin-5-yl)-[1,4′-dipiperidine]4-yl)ethynyl)-5-oxo-5,7-dihydro-6H-pyrrolo[3,4-b]pyridin-6-yl)-2,2,4,4-tetramethylcyclobutoxy)benzonitrile], with under 25%; and `N#Cc1ccc(O[C@H]2CC[C@H](NC(=O)c3cnc(N4CCN([C@@H]5C[C@@H]6CN(c7ccc8c(c7)C(=O)N(C7CCC(=O)NC7=O)C8=O)C[C@@H]6C5)CC4)cn3)CC2)cc1Cl` (stereo partly drawn) [Compound 296, N-((1r,4r)-4-(3-chloro-4-cyanophenoxy)cyclohexyl)-5-(4-((3aR,5R,6aS)-2-(2-(2,6-dioxopiperidin-3-yl)-1,3-dioxoisoindol-5-yl)octahydrocyclopenta [c]pyrrol-5-yl)piperazin-1-yl)pyrazine-2-carboxamide], with under 25%.
With `N#Cc1ccc(O[C@H]2CC[C@H](NC(=O)c3cnc(N4CCC(CN5CC6CN(c7cc8c(cc7F)C(=O)N(C7CCC(=O)NC7=O)C8=O)CC6C5)CC4)nc3)CC2)cc1Cl` (stereo partly shown) [Compound 257, N-((1r,4r)-4-(3-chloro-4-cyanophenoxy)cyclohexyl)-2-(4-((5-(2-(2,6-dioxopiperidin-3-yl)-6-fluoro-1,3-dioxoisoindolin-5-yl)Hexahydropyrrolo[3,4-c]pyrrol-2(1H)-yl)methyl)piperidin-1-yl)pyrimidine-5-carboxamide], the inhibition at 0.1 µM under setting [1] lay within 25 to 49%.
For `N#Cc1ccc(O[C@H]2CC[C@H](NC(=O)c3ccc(N4CCC(CN5CC6CN(c7cc8c(cc7F)C(=O)N(C7CCC(=O)NC7=O)C8=O)CC6C5)CC4)nn3)CC2)cc1Cl` (stereo partly shown) [Compound 253, N-((1r,4r)-4-(3-chloro-4-cyanophenoxy)cyclohexyl)-6-(4-((5-(2-(2,6-dioxopiperidin-3-yl)-6-fluoro-1,3-dioxoisoindolin-5-yl)Hexahydropyrrolo[3,4-c]pyrrol-2(1H)-yl)methyl)piperidin-1-yl)pyridazine-3-formamide], the inhibition at 0.1 µM under setting [1] lay within 50 to 79%.
`N#Cc1ccc(O[C@H]2CC[C@H](NC(=O)c3cnc(N4CCC(CN5CCC6(CCN(c7cc8c(cc7F)C(=O)N(C7CCC(=O)NC7=O)C8=O)C6)C5)CC4)cn3)CC2)cc1Cl` (stereo partly shown) [Compound 141]: the inhibition at 0.1 µM under setting [1] was over 80%.
On the same count and under the same terms, for `CN(C1CCN(c2cc3c(cc2F)C(=O)N(C2CCC(=O)NC2=O)C3=O)CC1)C1CC(C#Cc2ccc3c(n2)CN([C@H]2C(C)(C)[C@H](Oc4ccc(C#N)c(Cl)c4)C2(C)C)C3=O)C1` (stereo partly shown) [Compound 332] the value was 50 to 79%.
The same measure, in the same setting: for `N#Cc1ccc(OC2CC3(C2)CN(C(=O)c2ccc(N4CCC(CN5CCN(c6ccc7c(c6)C(=O)N(C6CCC(=O)NC6=O)C7=O)CC5)CC4)nn2)C3)cc1Cl` (stereo not shown) [Compound 120, 2-chloro-4-((2-(6-(4-((4-(2-(2,6-dioxopiperidin-3-yl)-1,3-dioxoisoindolin-5-yl)piperazin-1-yl)methyl)piperidin-1-yl)pyridazine-3-carbonyl)-2-azaspiro[3.3]heptan-6-yl)oxy)benzonitrile] the value was under 25%; for `N#Cc1ccc(O[C@H]2CC[C@H](NC(=O)c3cnc(N4CCC(N5CC6CN(c7ccc8c(c7)C(=O)N(C7CCC(=O)NC7=O)C8=O)CC6C5)CC4)cn3)CC2)cc1Cl` (stereo partly shown) [Compound 63, N-((1r,4r)-4-(3-chloro-4-cyanophenoxy)cyclohexyl)-5-(4-(5-(2-(2,6-dioxopiperidin-3-yl)-1,3-dioxoisoindolin-5-yl)hexahydropyrrolo[3,4-c]pyrrol-2(1H)-yl)piperidin-1-yl)pyrazine-2-carboxamide], 50 to 79%; for `N#Cc1ccc(OC2C[C@@H]3CN(C(=O)c4cnc(N5CCC(CN6CCN(c7ccc8c(c7)C(=O)N(C7CCC(=O)NC7=O)C8=O)CC6)CC5)cn4)C[C@@H]3C2)cc1Cl` (stereo partly drawn) [Compound 174, 2-chloro-4-(((3aR,5r,6aS)-2-(5-(4-((4-(2-(2,6-dioxopiperidin-3-yl)-1,3-dioxoisoindolin-5-yl)piperazin-1-yl)methyl)piperidin-1-yl)pyrazine-2-carbonyl)octahydrocyclopenta[c]pyrrol-5-yl)oxy)benzonitrile], under 25%.
